The structures appear in SMILES notation. Calls of active or inactive are those of the source. No rule for the calls is given here.

A short description of test [1]: SV40 cytopathic effect inhibition and cytotoxicity, SV40 T antigen inhibitor project, BSC cells, set 2 (AID 2775). The settings on record: BSC cells, SV40 CPE inhibition and viability; for viability: BSC cell viability, at 100 µM, stronger effect = lower value. (In general: Cytopathic effects are the visible damage that an infection or toxin causes in cultured cells.)
The subject of test [2] is BSC cells, SV40 CPE inhibition and viability. Described as above. The conditions noted are these: for EC50: measured here: SV40 T antigen ATPase.

As a reminder, the viability is a read-out of living cells in per cent, often relative to untreated cells. `O=C(c1cccn1-c1ccccc1)c1cccn1-c1ccccc1`: in test [1], the result was inactive and the viability was determined as 110%.

One may read the CC50 as the concentration at which the toxic effect on the cells reaches its halfway point. In general, EC50 refers to the concentration needed to bring the measured effect to its halfway point. Consider `O=C(Cn1sc2ccccc2c1=O)Nc1ccccc1`, for which the viability in test [1] was determined as 24%. In test [2], the CC50 is 61 µM (inactive) and the EC50 came to 35 µM.

For `COc1cccc(-n2nnnc2C(Cl)(Cl)c2nnnn2-c2cccc(OC)c2)c1`, in test [1], the outcome was inactive and the viability was found to be 99.5%.

Turning to `O=C(Cn1sc2ccccc2c1=O)Nc1cccc(C(F)(F)F)c1`, in test [1], the result was inactive and the viability was found to be 87.5%.

On to `COc1cccc(NC(=O)Cn2sc3ccccc3c2=O)c1`, for which the viability in test [1] turned out to be 52.5%. Moreover, in test [2], the CC50 was 57 µM (inactive) and the EC50 is 69.2 µM.

`O=C(Cn1sc2ccccc2c1=O)Nc1ccc(F)cc1`: in test [1], the viability is 30.5%. For the same compound, in test [2], the CC50 is 59 µM (inactive) and the EC50 came to 55.5 µM.

For the compound `COc1ccc(NC(=O)Cn2sc3ccccc3c2=O)cc1`, the viability in test [1] was found to be 24.9%. In test [2], the CC50 is 73 µM (inactive) and the EC50 was found to be 35 µM.

In the case of `O=C(Cn1sc2ccccc2c1=O)Nc1ccc(Cl)cc1`, in test [1], the outcome was inactive and the viability amounted to 83%.

As for `O=C(Cn1sc2ccccc2c1=O)NCc1ccccc1`, in test [1], the viability was found to be 22.9%. Also, in test [2], the CC50 was 58 µM (inactive) and the EC50 was found to be 31.8 µM.

As for `Cc1ccc(NC(=O)Cn2sc3ccccc3c2=O)cc1`, the viability in test [1] was found to be 22%. Besides, in test [2], the CC50 is 57 µM (inactive) and the EC50 is 52.8 µM.

Values taken from PubChem BioAssay AID2775 (Southern Research Specialized Biocontainment Screening …, 2010).
